≈ marks a conversion by molar mass, not a printed value.
What was measured:
P. aeruginosa 9843A = test: MIC against the infecting organism (Table 2); conditions: Pseudomonas aeruginosa
B. fragilis A 22533 = test: In vitro activity against anaerobes (MIC), two-fold serial agar dilution, GAM agar; assay type: cell-based; conditions: Bacteroides fragilis, A22533, Gn, Beta-Lactamase(+)
B. fragilis A 22053 = test: as above; assay type: cell-based; conditions: Bacteroides fragilis, A22053, Gn, Beta-Lactamase(-)
E. coli Juhl [1] = conditions: Escherichia coli, in Mus musculus, im, read-out: PD50
PCresistant S. aureus = test: MIC, two-fold serial agar dilution, Mueller-Hinton agar (geometric mean, group Gp-Ib); assay type: cell-based; conditions: Staphylococcus aureus, penicillin-resistant S. aureus, 5 strains
Procedure: (§1) For a primary evaluation of some representative compounds of this invention, minimum inhibitory concentrations (MIC's) were determined against 32 strains of test organisms by two-fold serial agar dilution method in Mueller-Hinton agar.
GpIb: PCresistant S. aureus

B. fragilis A 22534 = test: In vitro activity against anaerobes (MIC), two-fold serial agar dilution, GAM agar; assay type: cell-based; conditions: Bacteroides fragilis, A22534, Gn, Beta-Lactamase(+)
B. fragilis A 22695 = test: as above; assay type: cell-based; conditions: Bacteroides fragilis, A22695, Gn, Beta-Lactamase(+)
C. perfringens A9635 = test: microbe, parasite or virus in culture; assay type: cell-based; conditions: Clostridium perfringens
Ps. aeruginosa (7) = test: MIC, two-fold serial agar dilution, Mueller-Hinton agar (geometric mean, group Gn-III); assay type: cell-based; conditions: Pseudomonas aeruginosa, 7 strains
Procedure: as §1
GnIII: Ps. aeruginosa (7)

C. difficile A 21675 = test: In vitro activity against anaerobes (MIC); assay type: cell-based; conditions: Clostridioides difficile, A21675, Gp, Clindamycin-resistant
B. fragilis CUH-108 = test: In vitro activity against anaerobes (MIC), two-fold serial agar dilution, GAM agar; assay type: cell-based; conditions: Bacteroides fragilis, CUH108, Gn, Beta-Lactamase(+), Clindamycin-resistant
Procedure: In vitro activity against anaerobic bacteria was determined on eight strains of B. fragilis by two-fold serial agar dilution method in GAM agar.

B. fragilis A 22021 = test: as above; assay type: cell-based; conditions: Bacteroides fragilis, A22021, Gn, Beta-Lactamase(-)
[2] = tested on: Cephalothin (CET)sensitive E. coli(2), Kl. pneumoniae(1) and Pr. mirabilis(2); test: MIC, two-fold serial agar dilution, Mueller-Hinton agar (geometric mean, group Gn-Ia); assay type: cell-based; conditions: 5 strains
Procedure: as §1
GnIa: Cephalothin (CET)sensitive E. coli(2)*, Kl. pneumoniae(1) and Pr.

B. fragilis A 22693 = test: In vitro activity against anaerobes (MIC), two-fold serial agar dilution, GAM agar; assay type: cell-based; conditions: Bacteroides fragilis, A22693, Gn, Beta-Lactamase(-)
E. coli Juhl [3] = test: MIC against the infecting organism (Table 2); conditions: Escherichia coli
B. fragilis A 21916 = test: In vitro activity against anaerobes (MIC), two-fold serial agar dilution, GAM agar; assay type: cell-based; conditions: Bacteroides fragilis, A21916, Gn, Beta-Lactamase(-)
[4] = tested on: M. morganii(1), Ent. cloacae(2), and Ser. marcescens(2); test: MIC, two-fold serial agar dilution, Mueller-Hinton agar (geometric mean, group Gn-II); assay type: cell-based; conditions: 5 strains
Procedure: as §1
GnII: M. morganii(1), Ent. cloacae(2), and Ser. marcescens(2)

P. acnes A 21933 = test: In vitro activity against anaerobes (MIC); assay type: cell-based; conditions: Cutibacterium acnes, A21933, Gp
[5] = tested on: Penicillin (PC)sensitive S. (5 strains); test: MIC, two-fold serial agar dilution, Mueller-Hinton agar (geometric mean, group Gp-Ia); assay type: cell-based, S. aureus; conditions: Staphylococcus aureus
Procedure: as §1
Gp-Ia: Penicillin (PC)sensitive S.

S. aureus Smith [6] = conditions: Staphylococcus aureus, in Mus musculus, im, read-out: PD50
[7] = tested on: CETresistant E. coli(3), and Kl. pneumoniae(2); test: MIC, two-fold serial agar dilution, Mueller-Hinton agar (geometric mean, group Gn-Ib); assay type: cell-based; conditions: Escherichia coli, read-out: Geometric Mean of MIC, Gn-Ib
Procedure: as §1
GnIb: CETresistant E. coli(3), and Kl. pneumoniae(2)

S. aureus Smith [8] = test: MIC against the infecting organism (Table 2); conditions: Staphylococcus aureus

## CO/N=C(\C(=O)NC1C(=O)N2C(C(=O)O)=C(/C=C/COC(=O)c3ccc(O)c(O)c3)CS[C@H]12)c1nsc(N)n1 (stereo partly shown) [Ib, 7-[(Z)-2-(5-Amino-1,2,4-thiadiazol-3-yl)-2-methoxyiminoacetamido]-3-[(E)-3-(3,4-dihydroxybenzoyloxy)-1-propen-1-yl]-3-cephem-4carboxylic acid]
P. aeruginosa 9843A
  MIC: 0.4 µg/mL (≈ 0.694 µM)
B. fragilis A 22533
  MIC: > 50 µg/mL
B. fragilis A 22053
  MIC: 3.1 µg/mL (≈ 5.38 µM)
E. coli Juhl [1]
  ED50: 0.037 mg/kg
PCresistant S. aureus
  MIC: 3.1 µg/mL (≈ 5.38 µM)
B. fragilis A 22534
  MIC: > 50 µg/mL
B. fragilis A 22695
  MIC: 25 µg/mL (≈ 43.4 µM)
C. perfringens A9635
  MIC: 0.4 µg/mL (≈ 0.694 µM)
Ps. aeruginosa (7)
  MIC: 0.49 µg/mL (≈ 0.85 µM)
C. difficile A 21675
  MIC: 25 µg/mL (≈ 43.4 µM)
B. fragilis CUH-108
  MIC: > 50 µg/mL
B. fragilis A 22021
  MIC: 0.2 µg/mL (≈ 0.347 µM)
[2]
  MIC: 0.022 µg/mL (≈ 0.0382 µM)
B. fragilis A 22693
  MIC: 3.1 µg/mL (≈ 5.38 µM)
E. coli Juhl [3]
  MIC: 0.1 µg/mL (≈ 0.173 µM)
B. fragilis A 21916
  MIC: 12.5 µg/mL (≈ 21.7 µM)
[4]
  MIC: 0.53 µg/mL (≈ 0.919 µM)
P. acnes A 21933
  MIC: 0.8 µg/mL (≈ 1.39 µM)
[5]
  MIC: 3.4 µg/mL (≈ 5.9 µM)
S. aureus Smith [6]
  ED50: 0.68 mg/kg
[7]
  MIC: 0.026 µg/mL (≈ 0.0451 µM)

## CC(C)(O/N=C(\C(=O)NC1C(=O)N2C(C(=O)O)=C(/C=C/COC(=O)c3ccc(O)c(O)c3)CS[C@H]12)c1csc(N)n1)C(=O)O (stereo partly shown) [Ic, 7-[(Z)-2-(2-Aminothiazol-4-yl)-2-(1-carboxy-1-methylethoxyimino)acetamido]-3-[(E)-3-(3,4-dihydroxybenzoyloxy)-1-propen-1yl]-3-cephem-4-carboxylic acid]
P. aeruginosa 9843A
  MIC: 0.2 µg/mL (≈ 0.309 µM)
B. fragilis A 22533
  MIC: > 100 µg/mL
B. fragilis A 22053
  MIC: 0.8 µg/mL (≈ 1.24 µM)
E. coli Juhl [1]
  ED50: 0.062 mg/kg
PCresistant S. aureus
  MIC: 13 µg/mL (≈ 20.1 µM)
B. fragilis A 22534
  MIC: > 100 µg/mL
B. fragilis A 22695
  MIC: 3.1 µg/mL (≈ 4.79 µM)
C. perfringens A9635
  MIC: 0.4 µg/mL (≈ 0.618 µM)
Ps. aeruginosa (7)
  MIC: 0.82 µg/mL (≈ 1.27 µM)
C. difficile A 21675
  MIC: 50 µg/mL (≈ 77.2 µM)
B. fragilis CUH-108
  MIC: 12.5 µg/mL (≈ 19.3 µM)
B. fragilis A 22021
  MIC: 0.2 µg/mL (≈ 0.309 µM)
[2]
  MIC: 0.022 µg/mL (≈ 0.034 µM)
B. fragilis A 22693
  MIC: 3.1 µg/mL (≈ 4.79 µM)
E. coli Juhl [3]
  MIC: 0.2 µg/mL (≈ 0.309 µM)
B. fragilis A 21916
  MIC: 0.8 µg/mL (≈ 1.24 µM)
[4]
  MIC: 0.17 µg/mL (≈ 0.262 µM)
P. acnes A 21933
  MIC: 0.8 µg/mL (≈ 1.24 µM)
[5]
  MIC: 8.3 µg/mL (≈ 12.8 µM)
S. aureus Smith [6]
  ED50: 2.2 mg/kg
[7]
  MIC: 0.019 µg/mL (≈ 0.0293 µM)
S. aureus Smith [8]
  MIC: 12.5 µg/mL (≈ 19.3 µM)

From US5143911A, “Antibiotic C-3 di-hydroxyphenyl substituted cephalosporin compounds, compositions and method of use thereof” (Bristol-Myers Squibb Company, priority 1990, dated 1992)
